Reference: patent US9597531B2, “Selective, lipophilic, and long-acting beta agonist monotherapeutic formulations and methods for the cosmetic treatment of adiposity and contour bulging” (NEOTHETICS, INC., priority 2010, dated 2017)
Where two headings read alike, the source gives them in different places. Blank lines part the entries; values can stand above or below the molecule they belong to.

What was measured:
[1] = compared with albuterol; cited from earlier work
[2] = Pharmacokinetics and bioavailability in minipigs after SC administration (Example 8); format: in vivo, Gottingen minipig; conditions: for AUC(0-inf) / Cmax / half-life / Tmax: Gottingen, minipig, plasma, 4 ug/kg
Method: Plasma concentrations of salmeterol were monitored in a male and a female Gottingen minipig after SC administration of salmeterol xinafoate. SC dose of 4 μg/kg salmeterol xinafoate was administered as a single bolus dose. […] Samples were processed to plasma by centrifugation under refrigeration and stored frozen at approximately −70° C. (±15° C.) until analysis.
Other calculations were done using Microsoft Excel® XP. The bioanalytical and pharmacokinetic data were reported to 3 significant figures.

[3] = minipig, in vivo
[4] = system: subcutaneous fat thickness; assay: Subcutaneous fat thickness by 2D-ultrasound (Example 7)
inguinal fat pad = assay: Inguinal fat pad weight after SC injection into the rat inguinal fat pad (Example 6); format: in vivo, Sprague-Dawley rats
[5] = SC single site 4 μg/kg, female 2-0623
[6] = SC single site 4 μg/kg, male 1-0771

SMILES: OCc1cc(C(O)CNCCCCCCOCCCCc2ccccc2)ccc1O (racemic) [Salmeterol, ±2-(hydroxymethyl)-4-[1-hydroxy-2-[6-(4-phenylbutoxy)hexylamino]ethyl]-phenol]
- lipophilicity relative to albuterol [1]: at least 10,000 times
- AUC(0-inf) [2, 5]: 1.67 ng·h/mL
- Cmax [2, 5]: 0.433 ng/mL
- half-life [2, 5]: 494 min
- Tmax ([2]; SC single site 4 μg/kg, female 2-0623, read-out: Tmax): 30 min
- AUC(0-inf) [2, 6]: 2.26 ng·h/mL
- Cmax [2, 6]: 0.564 ng/mL
- half-life [2, 6]: 684 min
- Tmax ([2]; SC single site 4 μg/kg, male 1-0771, read-out: Tmax): 20 min
- tlast [2, 5]: 24.0 h
- tlast [2, 6]: 24.0 h
- salmeterol partition ratio (average plasma Cmax subcutaneous / average plasma Cmax intravenous) ([3]; both, Gottingen): 0.1
- Cmax ([3]; 0.004 ug/kg): 0 ng/mL
- plasma concentrations observed ([3]; sc): Scarce or no plasma concentrations

- absorption following SC administration ([2]; SC 4 μg/kg): rapidly absorbed
- Tmax ([2]; both sexes, SC 4 μg/kg, male and female, read-out: Tmax values): 20 to 30 min
SMILES: OCc1cc(C(O)CNCCCCCCOCCCCc2ccccc2)ccc1O (stereo not shown) [salmeterol xinafoate]
- evaluation of the injection sites ([4]; SC twice per week, 0.05, 0.5 or 5 μg per site): did not reveal any adverse reactions
- fat thickness (2D-ultrasound) ([4]; SC twice per week, FIG. 2): dose-related changes in fat thickness
- increase of fat thickness ([4]; highest dose (5 ng)): approximately 3%
- reduction of total fat thickness ([4]; lowest doses (0.05 and 0.5 ng)): 7-9%
- change in inguinal fat pad weight (inguinal fat pad; 0.1, 1, 10 or 100 μg SC into fat pad on 3 consecutive days, right vs left (vehicle) pad, FIG. 1): dose-related reduction in fat pad weight
- staining and histological evaluation of the tissue (inguinal fat pad; inguinal fat pad after SC injection, data not shown): reduction in fat cell number and size
